Columns and labels:
Saos-2-His-273 cells = assay: WST-1 growth suppression assay; format: cell-based, human
Protocol: (§1) Saos-2-His-273 cell line stably transfected with construct allowing expression of mutant His-273 p53 in a tetracycline-dependent manner was used for screening (Selivanova et al., 1997). p53 expression was inhibited by incubation of cells with doxycycline (5 μg/ml). Cells were grown in 96-well plates at a density of 3000 cells per well with or without doxycycline and treated with 25 μM of the compounds from the NCI library of low molecular weight (LMW) compounds. After 48 hours of incubation the proliferative cell reagent WST-1 (Roche) was added to the cells. The degree of WST-1 reduction, which reflects cell viability, was measured by microplate reader at λ490 nm according to the manufacturer (Roche).
as §1, with “1997).” for “1997). p53 expression was inhibited by incubation of cells with doxycycline (5 μg/ml).”, “doxycycline. The treatment was done at a concentration of” for “doxycycline and treated with”, “each chemical” for “the compounds”, “is proportional to the” for “reflects”, “by a” for “by”
Saos-2-His-273 cells grown in the presence or absence of doxycycline and parental Saos-2 cells were treated with the structural analogs and analyzed as described above. The effect of structural analogs on cell growth was tested using different concentrations of the compounds, ranging from 2.5 to 25 μM. Compounds MIRA-2, MIRA-3 and PRIMA-2, PRIMA-3 were identified that were able to suppress the growth of Saos-2-His-273 cells expressing mutant p53 (tet−). […] In addition, compounds MIRA-2 and MIRA-3 suppressed the growth of cells in a mutant p53-dependent manner at 10 μM concentration, in contrast to 25 μM of compound MIRA-1 required for the selective effect.

[1] = test system: human tumor cell lines with different p53 status (p53 null, wild type p53, mutant p53); assay: WST-1 growth suppression, series of tumor cell lines; format: cell-based
Source text: In addition, mouse p53 null J3D T-cell lymphoma line was used.

p53-null Saos-2 cells = assay: FACS analysis of apoptosis (sub-G1, propidium iodide); format: cell-based, human; set-up: dose or concentration left out as unconfirmed
Protocol: Induction of apoptosis was determined by FACS analysis of ethanol fixed cells stained with propidium iodide (PI) as percentage of a sub-G1 population. […] The percentage of dead cells in non-treated cultures and in controls treated with caspase inhibitors only was subtracted. […] Hoechst staining was used to stain cell nuclei. […] The percentage of apoptotic cells was measured by FACS analysis as it was described in Figure.
Cells were placed on 12-well plate at a density of 30000/cm^2 and treated with compounds. After 48 h incubation cells were harvested by trypsinization, fixed with 70% ethanol, treated with RNase A (0.25 mg/ml) and stained with propidium iodide (0.02 mg/ml). Samples were analyzed on a Becton Dickinson FACScan. Data were analyzed by the CellQuest software, version 3.2.1.

[2] = target: T1, GST-wild type p53 protein (Homo sapiens, UniProt P04637); assay: ELISA with conformation-specific antibodies, recombinant protein; format: biochemical
T1 construct: made in house
T1 sequence (P04637 whole entry): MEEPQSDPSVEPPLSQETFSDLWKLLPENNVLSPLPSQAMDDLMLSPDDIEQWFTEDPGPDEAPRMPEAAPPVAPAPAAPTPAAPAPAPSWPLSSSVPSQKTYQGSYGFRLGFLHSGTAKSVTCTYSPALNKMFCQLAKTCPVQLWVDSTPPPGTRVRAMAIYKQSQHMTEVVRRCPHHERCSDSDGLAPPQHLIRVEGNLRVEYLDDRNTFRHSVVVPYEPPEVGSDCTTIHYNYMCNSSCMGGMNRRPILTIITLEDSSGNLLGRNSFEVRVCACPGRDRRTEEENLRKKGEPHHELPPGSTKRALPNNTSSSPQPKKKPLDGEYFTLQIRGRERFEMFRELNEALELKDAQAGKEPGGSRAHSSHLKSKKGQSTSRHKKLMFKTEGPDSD
Protocol: 20 ng of GST-wtp53, GST-mtp53-175 and GST-mtp53-248 were heated at 37° C. for 30 min or kept on ice. The procedure was performed with or without tested compounds. The ELISA analyses were done as described by (Foster et al., 1999). Briefly, after the treatment, samples were diluted with coating buffer (150 mM KCL, 25 mM HEPES) supplemented with 10 mM DTT. The whole mixture was apply to ELISA plates (MaxiSorp, Nunc) and incubated at +4° C. for 35 min. The wells were washed with coating buffer. The wells were blocked by 5% skim milk in PBS by incubating at +4° C. for 1 h. […] Samples were incubated at +4° C. for 30 min. Wells were rinsed twice with PBS. After that, a secondary antibody (anti-mouse, conjugated with horse radish peroxidase) was incubated with samples at +4° C. for 30 min. Then plates were washed 5 times with PBS and a peroxidase substrate was added. An absorbance at λ405 nm was monitored by ELISA reader.

14 mutant p53 proteins = assay: Band shift assays, extracts of tumor cell lines; format: biochemical, human; settings: of 14 mutants tested
Protocol: The GST-p53 proteins were prepared as described (Selivanova et al., 1997). Band shift assays were performed in binding buffer containing 100 mM HEPES pH 7.5, 50 mM KCl , 1 mg/ml BSA, 0.1% Triton X-100, 2 mM MgCl2 and 1 mM DTT essentially as in (Selivanova et al., 1996).
The compound MIRA-1 restored the DNA binding of 3 out of 14 mutant p53 proteins (Table III).

SKOV-His-175 cells = assay: WST-1 proliferation assay; format: cell-based, human; settings: for increase in cell survival by cycloheximide pretreatment: cycloheximide before addition of compound
Protocol: FIG. 13B, PRIMA-3 reactivated the hot spot p53 mutant Trp-248 in H1299 lung adenocarcinoma cells. FIG. 13C, MIRA-2 and MIRA-3 reactivated His-175 mutant of p53 in SKOV cells. […] FIG. 13G, PRIMA-2 reactivated mutant p53 His-273 in SKOV cells.
as §1
The cycloheximide treatment renders SKOV-His-175 resistant to MIRA-1 as well, resulting in about 4 fold increase in cell survival. […] In addition, SKOV-His-175 cells were at least 3 fold more sensitive to treatment with MIRA-1 in comparison with SKOV-His-175-22/23 cells.
Growth suppression by analogs in the presence or absence of p53 expression was measured as described in FIG. 1. […] Analogs of MIRA-1 induced mutant p53-dependent growth suppression in SKOV-His-175 cells (FIG. 13C).

H1299-His-175 cells = assay: Western blot of p53 target genes p21 and MDM2; format: cell-based, human
[3] = test system: SW480 colon carcinoma cells carrying endogenous His-273 mutant p53; assay: Western blot of p53 target genes p21 and MDM2; format: cell-based; settings: Western blotting
Source text: In order to assess the effect of the analogs on the transcriptional transactivation function of mutant p53, we tested the expression of p53 target genes after treatment with analogs of colon carcinoma cells SW480 expressing endogenous His-273 mutant p53.

[4] = test system: HCT116 colon carcinoma cells that carry wild type p53; assay: Western blot of p53 target genes p21 and MDM2; format: cell-based
[5] = absence of mutant p53 expression
[6] = cells expressing mutant p53, PRIMA-1 25 μM, MIRA-1 10 μM

SMILES: CCC(=O)OCN1C(=O)C=CC1=O [MIRA-1]
- concentration at which growth of mutant p53 containing cells is selectively suppressed (Saos-2-His-273 cells; tet− vs tet+ and parental Saos-2, 48 hours, 2.5 to 25 μM tested): 25 µM
- growth suppression of mutant p53-expressing cells versus p53 null and wild type p53 cells [1]: more efficiently
- induction of apoptosis (p53-null Saos-2 cells; 48 hours): not in p53-null Saos-2 cells
- increase in the PAb1620+ fraction [2]: About 40%
- reduction in PAb240+ fraction [2]: ~20%
- mutant p53 proteins whose specific DNA binding was restored (14 mutant p53 proteins): 3 out of 14
- sensitivity of SKOV-His-175 cells in comparison with SKOV-His-175-22/23 cells (SKOV-His-175 cells): at least 3 fold
- increase in cell survival by cycloheximide pretreatment (SKOV-His-175 cells): about 4 fold
- induction of MDM2 and p21 (H1299-His-175 cells; [5]): did not cause any induction
- induction of MDM2 and p21 (H1299-His-175 cells; [6]): solid induction of both MDM2 and p21
- induction of MDM2 and p21 [3]: induced MDM2 and p21
- MDM2 and p21 protein levels [4]: did not cause any significant changes

SMILES: O=C1C2CCN(CC2)C1(CO)CO [PRIMA-1, 2,2-bis(hydroxymethyl)-1-azabicyclo[2,2,2]octan-3-one]
- growth of cells expressing mutant p53 (growth curves) (Saos-2-His-273 cells; mutant p53 expressed): completely inhibited growth
- growth of cells in the absence of mutant p53 expression (Saos-2-His-273 cells; no mutant p53 expression): minor reduction in growth rate
- growth suppression of mutant p53-expressing cells versus p53 null and wild type p53 cells [1]: more efficiently
- induction of apoptosis (p53-null Saos-2 cells; 50, 75 and […], no p53 expression): much less efficient
- DO-1+ fraction [2]: remained unchanged
- increase in the PAb1620+ fraction [2]: 40%
- reduction in PAb240+ fraction [2]: corresponding decrease
- mutant p53 proteins whose specific DNA binding was restored (14 mutant p53 proteins): 13 out of 14
- increase in cell survival by cycloheximide pretreatment (SKOV-His-175 cells): 4 fold
- induction of MDM2 and p21 (H1299-His-175 cells; [5]): did not cause any induction
- induction of MDM2 and p21 (H1299-His-175 cells; [6]): solid induction of both MDM2 and p21
- induction of MDM2 and p21 [3]: induced MDM2 and p21
- MDM2 and p21 protein levels [4]: did not cause any significant changes

From US7348330B2, “1-azabicyclo [2,2,2] octan-3-one derivatives” (Aprea AB, priority 2000, dated 2008)
